Among the data in US20070208166A1, “Tao Kinase Modulators And Method Of Use” (Exelixis, Inc., priority 2003, published 2007) are IC50 values, retold here.

A value given as a limit tells only on which side of the number the result lay.

What all share (format): biochemical
Experiment [1] has as its target T1, KIAA 1361 (baculovirus expressed human KIAA 1361 kinase domain 2-322) (Homo sapiens, UniProt Q7L7X3).
T1 construct: human KIAA 1361 kinase domain 2-322; made in house
T1 sequence (Q7L7X3 2-322): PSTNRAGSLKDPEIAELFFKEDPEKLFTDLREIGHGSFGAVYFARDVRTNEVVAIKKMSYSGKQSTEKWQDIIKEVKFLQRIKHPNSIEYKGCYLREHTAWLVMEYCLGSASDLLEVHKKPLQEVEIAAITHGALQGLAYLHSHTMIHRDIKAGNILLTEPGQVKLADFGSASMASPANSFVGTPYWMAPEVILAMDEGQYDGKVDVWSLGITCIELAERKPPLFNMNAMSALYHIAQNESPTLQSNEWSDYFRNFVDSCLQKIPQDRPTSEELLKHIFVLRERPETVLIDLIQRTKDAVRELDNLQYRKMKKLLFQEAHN
Put plainly: KIAA 1361 Luciferase-Coupled Chemiluminescent Kinase assay (LCCA). The following applies: 2 μM ATP, 10 μM MBP, 12 nM KIAA 1361, 2 hours; read-out: KIAA1361 inhibition IC50. Put shortly: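 KIAA 1361 kinase domain 2-322 (baculovirus, 12 nM) with 2 μM ATP and 10 μM MBP in Tris pH 7.5, MgCl2, MnCl2; 2 h, ambient. Remaining ATP read by luciferase chemiluminescence; 10 concentrations, IC50 by four-parameter fit.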

In a further experiment the target is T2, JIK (Homo sapiens, UniProt Q9H2K8).
T2 construct: 6 nM JIK (baculovirus expressed human KIAA 1361 kinase domain2-318); made in house
T2 sequence (Q9H2K8 2-318): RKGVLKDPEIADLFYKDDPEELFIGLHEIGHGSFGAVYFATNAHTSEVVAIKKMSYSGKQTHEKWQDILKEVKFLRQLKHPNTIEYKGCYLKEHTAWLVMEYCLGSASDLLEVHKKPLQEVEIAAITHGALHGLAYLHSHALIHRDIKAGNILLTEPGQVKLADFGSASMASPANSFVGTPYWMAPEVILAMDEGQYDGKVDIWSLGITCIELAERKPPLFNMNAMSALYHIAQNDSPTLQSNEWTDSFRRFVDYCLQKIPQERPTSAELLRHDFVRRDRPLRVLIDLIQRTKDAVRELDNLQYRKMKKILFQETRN
Put plainly: JIK Luciferase-Coupled Chemiluminescent Kinase assay (LCCA). As to conditions: 2 μM ATP, 10 μM MBP, 6 nM JIK, 2 hours; read-out: JIK inhibition IC50. The method, boiled down: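 Baculovirus-expressed human KIAA 1361 kinase domain 2-318 at 6 nM, with 10 μM MBP and 2 μM ATP in Tris pH 7.5 with Mg/Mn, ran 2 h at ambient temperature. Remaining ATP was read by luciferase chemiluminescence. IC50 comes from a 10-concentration four-parameter fit.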

A further experiment addresses T3, TAO (Homo sapiens, UniProt Q9UL54).
T3 sequence (Q9UL54 1-1235): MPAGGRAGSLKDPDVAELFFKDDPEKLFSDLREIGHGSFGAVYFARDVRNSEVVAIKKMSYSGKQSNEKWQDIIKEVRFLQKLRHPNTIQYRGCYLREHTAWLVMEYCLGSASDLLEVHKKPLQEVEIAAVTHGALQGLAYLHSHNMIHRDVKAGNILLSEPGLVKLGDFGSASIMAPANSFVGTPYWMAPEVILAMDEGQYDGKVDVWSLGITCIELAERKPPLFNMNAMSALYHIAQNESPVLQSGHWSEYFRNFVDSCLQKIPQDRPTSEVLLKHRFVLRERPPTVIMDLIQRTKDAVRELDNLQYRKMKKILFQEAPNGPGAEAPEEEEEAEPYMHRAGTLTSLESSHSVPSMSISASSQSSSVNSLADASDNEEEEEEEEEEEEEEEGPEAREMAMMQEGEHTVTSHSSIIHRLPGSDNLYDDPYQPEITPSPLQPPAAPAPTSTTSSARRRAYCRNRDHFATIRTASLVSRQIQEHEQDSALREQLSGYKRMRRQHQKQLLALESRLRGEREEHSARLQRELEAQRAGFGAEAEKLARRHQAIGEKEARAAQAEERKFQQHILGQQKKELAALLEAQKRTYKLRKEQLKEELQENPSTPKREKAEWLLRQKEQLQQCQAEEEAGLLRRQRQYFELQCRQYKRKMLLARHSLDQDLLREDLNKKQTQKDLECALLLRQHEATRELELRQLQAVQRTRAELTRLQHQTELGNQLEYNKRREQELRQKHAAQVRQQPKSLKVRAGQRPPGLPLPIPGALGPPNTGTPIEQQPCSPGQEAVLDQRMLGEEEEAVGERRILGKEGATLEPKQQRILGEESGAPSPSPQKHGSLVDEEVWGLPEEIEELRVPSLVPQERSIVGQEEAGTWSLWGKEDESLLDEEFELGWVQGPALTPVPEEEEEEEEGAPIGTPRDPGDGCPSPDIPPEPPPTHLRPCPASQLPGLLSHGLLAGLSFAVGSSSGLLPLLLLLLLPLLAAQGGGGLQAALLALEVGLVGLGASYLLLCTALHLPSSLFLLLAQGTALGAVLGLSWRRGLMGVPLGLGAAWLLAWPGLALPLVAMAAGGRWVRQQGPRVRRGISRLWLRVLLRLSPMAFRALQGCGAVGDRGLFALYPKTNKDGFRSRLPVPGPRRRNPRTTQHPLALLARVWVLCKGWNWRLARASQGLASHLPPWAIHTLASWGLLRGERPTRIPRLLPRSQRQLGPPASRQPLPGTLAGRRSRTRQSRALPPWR
Description: TAO Luciferase-Coupled Chemiluminescent Kinase assay (LCCA). As to conditions: 2 μM ATP, 10 μM MBP, 12 nM TAO, 2 hours; read-out: TAO inhibition IC50.

With `COc1ccc2nc(NC(=O)CNC(=O)CC(NC(C)=O)c3ccccc3)sc2c1` (stereo not drawn) [Entry 84, 3-(acetylamino)-N-(2-{[6-(methyloxy)-1,3-benzothiazol-2-yl]amino}-2-oxoethyl)-3-phenylpropanamide], the IC50 (in experiment [1]; at JIK; on TAO) was more than 5000 nM each time.

Regarding `O=C(COc1ccc(OCc2ccccc2)cc1)NCC(=O)NC1CCCc2ccccc21` (stereo not drawn) [Entry 2, N˜2˜-[({4-[(phenylmethyl)oxy]phenyl}oxy)acetyl]-N-(1,2,3,4-tetrahydronaphthalen-1-yl)glycinamide], the IC50 in experiment [1] is 50 to 500 nM; on JIK it was less than 50 nM; on TAO it was 50 to 500 nM.

For `O=C(NC(C(=O)NC1CCCc2ccccc21)c1cccnc1)c1ccc(-n2cncn2)cc1` (stereo not drawn) [Entry 16, N-[2-oxo-1-pyridin-3-yl-2-(1,2,3,4-tetrahydronaphthalen-1-ylamino)ethyl]-4-(1H-1,2,4-triazol-1-yl)benzamide], the IC50 (in experiment [1]; on JIK; at TAO) was 50 to 500 nM throughout.

Take `O=C(CNC(=O)C(NC(=O)C(c1ccccc1)C1CCCC1)c1cccnc1)NC1CCCc2ccccc21` (stereo not drawn) [Entry 55, N˜2˜-[{[cyclopentyl(phenyl)acetyl]amino}(pyridin-3-yl)acetyt]-N-(1,2,3,4-tetrahydronaphthalen-1-yl)glycinamide]: the 50% inhibitory concentration (IC50) (in experiment [1]; on JIK; at TAO) was more than 5000 nM each time.

For `CCc1ccc(-c2ccc(C(=O)N(C)CC(=O)NC3CCCc4ccccc43)cc2)cc1` (stereo not drawn) [Entry 66, 4′-ethyl-N-methyl-N-[2-oxo-2-(1,2,3,4-tetrahydronaphthalen-1-ylamino)ethyl]biphenyl-4-carboxamide], the IC50 (in experiment [1]; on JIK; at TAO) was more than 5000 nM in each case.

`Cc1cc(C(=O)NCC(=O)NC2CCCc3ccccc32)cc(C)c1OCc1ccccc1` (stereo not drawn) [Entry 20, 3,5-dimethyl-N-{2-oxo-2-(1,2,3,4-tetrahydronaphthalen-1-ylamino)ethyl]-4-[(phenylmethyl)oxy]benzamide]: the figures for the IC50 (in experiment [1]; at JIK; at TAO) were 50 to 500 nM, 50 to 500 nM and 500 to 5000 nM, respectively.

Regarding `O=C(CC(NC(=O)c1ccccc1)c1ccccc1)NCC(=O)Nc1nc2ccccc2s1` (stereo not drawn) [Entry 90, N-(3-{[2-(1,3-benzothiazol-2-ylamino)-2-oxoethyl]amino}-3-oxo-1-phenylpropyl)benzamide], the IC50 in experiment [1] was 50 to 500 nM; at JIK it was less than 50 nM; at TAO, 50 to 500 nM.

For the molecule `O=C(CC(NC(=O)c1ccccc1)c1ccccc1)NCC(=O)Nc1nc2ccc(O)cc2s1` (stereo not drawn) [Entry 98, N-[3-({2-[(6-hydroxy-1,3-benzothiazol-2-yl)amino]-2-oxoethyl}amino)-3-oxo-1-phenylpropyl]benzamide], the IC50 in experiment [1] was 50 to 500 nM; at JIK it was less than 50 nM; at TAO, 50 to 500 nM.

Consider `CCc1ccc(-c2ccc(C(=O)NCC(=O)NC3CN(C(=O)OC(C)(C)C)Cc4ccccc43)cc2)cc1` (stereo not drawn) [Entry 95, 1,1-dimethylethyl 4-({N-[(4′-ethylbiphenyl-4-yl)carbonyl]glycyl}amino)-3,4-dihydroisoquinoline-2(1H)-carboxylate], for which the IC50 in experiment [1] is more than 5000 nM; at JIK, 500 to 5000 nM; on TAO, more than 5000 nM.

Regarding `CCCCOc1ccc(NC(=O)N[C@@H](COCc2ccccc2)C(=O)NCCc2ccccc2)cc1` [Entry 21, N˜2˜-({[4-(butyloxy)phenyl]amino}carbonyl)-N-(2-phenylethyl)-O-(phenylmethyl)serinamide], the IC50 in experiment [1] was 50 to 500 nM; on JIK, 50 to 500 nM; on TAO it was more than 5000 nM.

On to `CCc1ccc(-c2ccc(C(=O)NCC(=O)N[C@H]3CCCc4ccccc43)cc2)cc1` [Entry 61, 4′-ethyl-N-{2-oxo-2-[(1S)-1,2,3,4-tetrahydronaphthalen-1-ylamino]ethyl}biphenyl-4-carboxamide], for which the IC50 (in experiment [1]; at JIK; at TAO) was less than 50 nM each time.

As to `CCCCCOc1ccc(C(=O)NCC(=O)NC2CCCc3ccccc32)cc1` (stereo not drawn) [Entry 1, N-[2-oxo-2-(1,2,3,4-tetrahydronaphthalen-1-ylamino)ethyl]-4-(pentyloxy)benzamide], the values for the IC50 (in experiment [1]; at JIK; on TAO) were less than 50 nM, less than 50 nM and 50 to 500 nM, respectively.

With `O=C(CC(NC(=O)c1ccccc1)c1ccccc1)NCC(=O)Nc1nccs1` (stereo not drawn) [Entry 92, N-(3-oxo-3-{[2-oxo-2-(1,3-thiazol-2-ylamino)ethyl]amino}-1-phenylpropyl)benzamide], the concentration for half-maximal inhibition (IC50) in experiment [1] lay in the range of 500 to 5000 nM; on JIK, 50 to 500 nM; on TAO, 500 to 5000 nM.

Regarding `O=C(CNC(=O)c1ccc2c(c1)CCCC2)NC1CCCc2ccccc21` (stereo not drawn) [Entry 82, N-[2-oxo-2-(1,2,3,4-tetrahydronaphthalen-1-ylamino)ethyl]-5,6,7,8-tetrahydronaphthalene-2-carboxamide], the values for the IC50 (in experiment [1]; on JIK; on TAO) were more than 5000 nM, 500 to 5000 nM and more than 5000 nM, respectively.

Turning to `O=C(CNC(=O)c1ccc(OC(F)(F)F)cc1)NC1CCCc2ccccc21` (stereo not drawn) [Entry 45, N-[2-oxo-2-(1,2,3,4-tetrahydronaphthalen-1-ylamino)ethyl]-4-[(trifluoromethyl)oxy]benzamide], the IC50 was 500 to 5000 nM in experiment [1], 50 to 500 nM on JIK and 500 to 5000 nM on TAO.

Regarding `O=C(CC(NC(=O)c1ccccc1)c1ccccc1)NCC(=O)NC1CCCc2ccccc21` (stereo not drawn) [Entry 81, N-(3-oxo-3-{[2-oxo-2-(1,2,3,4-tetrahydronaphthalen-1-ylamino)ethyl]amino}-1-phenylpropyl)benzamide], the IC50 (in experiment [1]; on JIK; at TAO) was more than 5000 nM throughout.

On to `COc1cccc(OCC(=O)NCC(=O)NC2CCCc3ccccc32)c1` (stereo not drawn) [Entry 28, N˜2˜-({[3-(methyloxy)phenyl]oxy}acetyl)-N-(1,2,3,4-tetrahydronaphthalen-1-yl)glycinamide], for which the IC50 in experiment [1] fell in the range of 500 to 5000 nM; on JIK, 50 to 500 nM; on TAO it was 500 to 5000 nM.

As for `CCCCOc1ccc(C(=O)N[C@@H](Cc2c[nH]c3ccccc23)C(=O)NC2CCCc3ccccc32)cc1` (stereo partly drawn) [Entry 14, Nalpha-{[4-(butyloxy)phenyl]carbonyl}-N-(1,2,3,4-tetrahydronaphthalen-1-yl)tryptophanamide], the IC50 in experiment [1] lay within 50 to 500 nM; on JIK, 50 to 500 nM; at TAO, 500 to 5000 nM.
